# Experimental data from the supplement of paper PMC11061612.
# Assays:
# AZD1775 = compound: C=CCn1c(=O)c2cnc(Nc3ccc(N4CCN(C)CC4)cc3)nc2n1-c1cccc(C(C)(C)O)n1 [AZD1775]; details: max 3 µM
# In short: (§1)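 Plates with 1536 wells received cancer cell lines in 7.5 μl of DMEM/F12 or RPMI containing 10% FBS. After 24 hours at 37°C and 5% CO2, cells were dosed for 72 hours with final DMSO typically 0.2%, and viability was read by CellTiter-Glo 2.0 luminescence scaled between blank-well and DMSO-well means. The single-agent IC50 was taken from a logistic fit of the dose responses made with a non-linear mixed effects model, that logistic curve having two parameters.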
# Alisertib = compound: COc1cc(Nc2ncc3c(n2)-c2ccc(Cl)cc2C(c2c(F)cccc2OC)=NC3)ccc1C(=O)O [Alisertib]; details: max 10 µM
# In short: as §1
# AZD4320 = compound: CN(CC[C@H](CSC1=CC=CC=C1)NC2=C(C=C(C=C2)S(=O)(=O)NC(=O)C3=CC=C(C=C3)N4CCC(CC4)[C@H](C5=CC=CC=C5C6=CC=C(C=C6)Cl)O)S(=O)(=O)C(F)(F)F)CCO [AZD4320]; details: max 1 µM
# In short: as §1
# AZD6738 = compound: C[C@@H]1COCCN1C2=NC(=NC(=C2)C3(CC3)[S@](=N)(=O)C)C4=C5C=CNC5=NC=C4 [AZD6738]; details: max 10 µM
# In short: as §1
# Crizotinib = compound: C[C@@H](Oc1cc(-c2cnn(C3CCNCC3)c2)cnc1N)c1c(Cl)ccc(F)c1Cl [Crizotinib]; details: max 10 µM
# In short: as §1
# AZD1390 = compound: CC(C)n1c(=O)n(C)c2cnc3cc(F)c(-c4ccc(OCCCN5CCCCC5)nc4)cc3c21 [AZD1390]; details: max 0.3 µM
# In short: as §1
# Olaparib = compound: O=C(c1cc(Cc2n[nH]c(=O)c3ccccc23)ccc1F)N1CCN(C(=O)C2CC2)CC1 [Olaparib]; details: max 10 µM
# In short: as §1
# Prexasertib = compound: COc1cccc(OCCCN)c1-c1cc(Nc2cnc(C#N)cn2)n[nH]1 [Prexasertib]; details: max 1 µM
# In short: as §1
# Palbociclib = compound: CC(=O)c1c(C)c2cnc(Nc3ccc(N4CCNCC4)cn3)nc2n(C2CCCC2)c1=O [Palbociclib]; details: max 10 µM
# In short: as §1
# Savolitinib = compound: C[C@@H](c1ccc2nccn2c1)n1nnc2ncc(-c3cnn(C)c3)nc21 [Savolitinib]; details: max 1 µM
# In short: as §1
# SG3199 = compound: CC1=CN2[C@@H](C1)C=NC3=CC(=C(C=C3C2=O)OC)OCCCCCOC4=C(C=C5C(=C4)N=C[C@@H]6CC(=CN6C5=O)C)OC [SG3199]; details: max 0.001 µM
# In short: as §1
# AZD7648 = compound: Cc1cc2ncnn2cc1Nc1ncc2c(n1)n(C1CCOCC1)c(=O)n2C [AZD7648]; details: max 10 µM
# In short: as §1
# SN-38 = compound: CCc1c2c(nc3ccc(O)cc13)-c1cc3c(c(=O)n1C2)COC(=O)[C@]3(O)CC [SN-38]; details: max 0.3 µM
# In short: as §1
# AZD2811 = compound: CCN(CCO)CCCOc1ccc2c(Nc3cc(CC(=O)Nc4cccc(F)c4)[nH]n3)ncnc2c1 [AZD2811]; details: max 1 µM
# In short: as §1
# Trametinib = compound: CC(=O)Nc1cccc(-n2c(=O)n(C3CC3)c(=O)c3c(Nc4ccc(I)cc4F)n(C)c(=O)c(C)c32)c1 [Trametinib]; details: max 1 µM
# In short: as §1
# Gefitinib = compound: COc1cc2ncnc(Nc3ccc(F)c(Cl)c3)c2cc1OCCCN1CCOCC1 [Gefitinib]; details: max 10 µM
# In short: as §1
# Capivasertib = compound: C1CN(CCC1(C(=O)N[C@@H](CCO)C2=CC=C(C=C2)Cl)N)C3=NC=NC4=C3C=CN4 [Capivasertib]; details: max 10 µM
# In short: as §1
# Selumetinib = compound: Cn1cnc2c(F)c(Nc3ccc(Br)cc3Cl)c(C(=O)NOCCO)cc21 [Selumetinib]; details: max 10 µM
# In short: as §1
# AZD8186 = compound: C[C@@H](Nc1cc(F)cc(F)c1)c1cc(C(=O)N(C)C)cc2c(=O)cc(N3CCOCC3)oc12 [AZD8186]
# In short: as §1
# AZD5991 = compound: Cc1c2c(nn1C)CSCc1cc(n(C)n1)CSc1cc(c3ccccc3c1)OCCCc1c(C(=O)O)n(C)c3c-2c(Cl)ccc13 [AZD5991]; details: max 1 µM
# In short: as §1
# Taselisib = compound: Cc1nc(-c2cn3c(n2)-c2ccc(-c4cnn(C(C)(C)C(N)=O)c4)cc2OCC3)n(C(C)C)n1 [Taselisib]; details: max 10 µM
# In short: as §1
# Lapatinib = compound: CS(=O)(=O)CCNCc1ccc(-c2ccc3ncnc(Nc4ccc(OCc5cccc(F)c5)c(Cl)c4)c3c2)o1 [Lapatinib]; details: max 10 µM
# In short: as §1
# AZD5153 = compound: COc1nnc2ccc(N3CCC(c4ccc(OCCN5CCN(C)C(=O)[C@H]5C)cc4)CC3)nn12 [AZD5153]; details: max 1 µM
# In short: as §1
# Venetoclax = compound: CC1(C)CCC(CN2CCN(c3ccc(C(=O)NS(=O)(=O)c4ccc(NCC5CCOCC5)c([N+](=O)[O-])c4)c(Oc4cnc5[nH]ccc5c4)c3)CC2)=C(c2ccc(Cl)cc2)C1 [Venetoclax]; details: max 1 µM
# In short: as §1
# AZD0156 = compound: CN(C)CCCOc1ccc(-c2ccc3ncc4c(c3c2)n(C2CCOCC2)c(=O)n4C)cn1 [AZD0156]; details: max 3 µM
# In short: as §1
# Doxorubicin = compound: COc1cccc2c1C(=O)c1c(O)c3c(c(O)c1C2=O)C[C@@](O)(C(=O)CO)C[C@@H]3O[C@H]1C[C@H](N)[C@H](O)[C@H](C)O1 [Doxorubicin]; details: max 1 µM
# In short: as §1
# Dasatinib = compound: CC1=C(C(=CC=C1)Cl)NC(=O)C2=CN=C(S2)NC3=CC(=NC(=N3)C)N4CCN(CC4)CCO [Dasatinib]; details: max 2 µM
# In short: as §1
# [1] = compound: O=C(Nc1ccc2[nH]nc(-c3ccncc3)c2c1)[C@@H]1CCN(CC(=O)N2CCN(c3ccc(-c4ncccn4)cc3)CC2)C1; details: max 5 µM
# In short: as §1
# Paclitaxel = compound: CC(=O)O[C@H]1C(=O)[C@@]2(C)[C@H]([C@H](OC(=O)c3ccccc3)[C@]3(O)C[C@H](OC(=O)[C@H](O)[C@@H](NC(=O)c4ccccc4)c4ccccc4)C(C)=C1C3(C)C)[C@]1(OC(C)=O)CO[C@@H]1C[C@@H]2O [Paclitaxel]; details: max 3 µM
# In short: as §1
# Etoposide = compound: COc1cc([C@@H]2c3cc4c(cc3[C@@H](O[C@@H]3O[C@@H]5CO[C@@H](C)O[C@H]5[C@H](O)[C@H]3O)[C@H]3COC(=O)[C@H]23)OCO4)cc(OC)c1O [Etoposide]; details: max 10 µM
# In short: as §1
# Carboplatin = compound: C1CC(C1)(C(=O)[O-])C(=O)[O-].N.N.[Pt+2] [Carboplatin]; details: max 10 µM
# In short: as §1
# MK-2206 = compound: NC1(c2ccc(-c3nc4ccn5c(=O)[nH]nc5c4cc3-c3ccccc3)cc2)CCC1 [MK-2206]; details: max 10 µM
# In short: as §1
# 5-Fluorouracil = compound: O=c1[nH]cc(F)c(=O)[nH]1 [5-Fluorouracil]; details: max 20 µM
# In short: as §1
# Gemcitabine = compound: Nc1ccn([C@@H]2O[C@H](CO)[C@@H](O)C2(F)F)c(=O)n1 [Gemcitabine]; details: max 0.3 µM
# In short: as §1
# SRA737 = compound: N#Cc1cnc(Nc2cc(NC[C@H]3CNCCO3)c(C(F)(F)F)cn2)cn1 [SRA737]; details: max 10 µM
# In short: as §1
# AZD5363 = compound: C1CN(CCC1(C(=O)N[C@@H](CCO)C2=CC=C(C=C2)Cl)N)C3=NC=NC4=C3C=CN4 [AZD5363]; details: max 10 µM
# In short: as §1
Cell Line,"IC50, cell viability 72 h (AZD1775) [nM]","IC50, cell viability 72 h (Alisertib) [nM]","IC50, cell viability 72 h (AZD4320) [nM]","IC50, cell viability 72 h (AZD6738) [nM]","IC50, cell viability 72 h (Crizotinib) [nM]","IC50, cell viability 72 h (AZD1390) [nM]","IC50, cell viability 72 h (Olaparib) [nM]","IC50, cell viability 72 h (Prexasertib) [nM]","IC50, cell viability 72 h (Palbociclib) [nM]","IC50, cell viability 72 h (Savolitinib) [nM]","IC50, cell viability 72 h (SG3199) [nM]","IC50, cell viability 72 h (AZD7648) [nM]","IC50, cell viability 72 h (SN-38) [nM]","IC50, cell viability 72 h (AZD2811) [nM]","IC50, cell viability 72 h (Trametinib) [nM]","IC50, cell viability 72 h (Gefitinib) [nM]","IC50, cell viability 72 h (Capivasertib) [nM]","IC50, cell viability 72 h (Selumetinib) [nM]","IC50, cell viability 72 h (AZD8186; max 3 µM) [nM]","IC50, cell viability 72 h (AZD5991) [nM]","IC50, cell viability 72 h (Taselisib) [nM]","IC50, cell viability 72 h (Lapatinib) [nM]","IC50, cell viability 72 h (AZD5153) [nM]","IC50, cell viability 72 h (Venetoclax) [nM]","IC50, cell viability 72 h (AZD0156) [nM]","IC50, cell viability 72 h (Doxorubicin) [nM]","IC50, cell viability 72 h (Dasatinib) [nM]","IC50, cell viability 72 h [1] [nM]","IC50, cell viability 72 h (Paclitaxel) [nM]","IC50, cell viability 72 h (Etoposide) [nM]","IC50, cell viability 72 h (Carboplatin) [nM]","IC50, cell viability 72 h (MK-2206) [nM]","IC50, cell viability 72 h (5-Fluorouracil) [nM]","IC50, cell viability 72 h (Gemcitabine) [nM]","IC50, cell viability 72 h (AZD8186; max 10 µM) [nM]","IC50, cell viability 72 h (SRA737) [nM]","IC50, cell viability 72 h (AZD5363) [nM]"
LC-1-sq (Squamous Cell Lung Carcinoma),294,> 10000,> 1000,2130,> 10000,> 300,> 10000,16.4,> 10000,> 1000,> 1,> 10000,> 300,> 1000,> 1000,> 10000,> 10000,> 10000,> 3000,> 1000,> 10000,> 10000,490,> 1000,> 3000,> 1000,> 2000,,,,,,,,,,
CADO-ES1 (Ewing's Sarcoma),2290,135,243,2890,> 10000,> 300,> 10000,50,> 10000,> 1000,> 1,> 10000,2.06,> 1000,> 1000,> 10000,> 10000,> 10000,> 3000,207,> 10000,> 10000,> 1000,60.9,> 3000,827,> 2000,,,,,,,,,,
OACM5-1 (Esophageal Adenocarcinoma),2550,3850,> 1000,9880,4400,> 300,> 10000,134,6860,> 1000,> 1,> 10000,46.4,> 1000,> 1000,> 10000,1990,> 10000,> 3000,58.2,418,8070,391,> 1000,> 3000,615,> 2000,,,,,,,,,,
G-401 (Other Solid Carcinomas),1410,1000,> 1000,> 10000,5410,> 300,> 10000,239,833,> 1000,> 1,> 10000,58.9,> 1000,84.2,> 10000,2710,> 10000,> 3000,> 1000,336,> 10000,48.3,> 1000,> 3000,111,> 2000,,,,,,,,,,
EJM (Plasma Cell Myeloma),202,> 10000,> 1000,1650,6790,> 300,> 10000,8.91,> 10000,> 1000,> 1,> 10000,25.9,> 1000,> 1000,> 10000,> 10000,> 10000,> 3000,332,> 10000,> 10000,414,> 1000,> 3000,837,> 2000,,,,,,,,,,
OE33 (Esophageal Adenocarcinoma),1590,> 10000,> 1000,2590,> 10000,> 300,> 10000,43.5,> 10000,> 1000,> 1,> 10000,199,> 1000,> 1000,> 10000,,> 10000,,> 1000,> 10000,> 10000,> 1000,> 1000,> 3000,> 1000,> 2000,> 5000,736,> 10000,> 10000,> 10000,> 20000,170,> 10000,7720,> 10000
